Reference: article PMC12373846, “Hemoglobin as a pseudoperoxidase and drug target for oxidative stress-related diseases” (Signal Transduction and Targeted Therapy, 2025)
Where “and” joins values, the source holds several entries; their conditions need not be identical. Equal entries are not always repeated. Where two headings read alike, the source gives them in different places.

How the values were obtained:
[1] = molecular target: T1, alpha 1B (h) (antagonist radioligand) (Homo sapiens, UniProt P35368); experiment: SafetyScreen87 panel; conditions: 1.0E-06 M, read-out: % Inhibition of Control Specific Binding (1st, 2nd, Mean)
T1 construct: purchased DiscoverX KINOMEscan scanEDGE; Eurofins Cerep SafetyScreen87
T1 sequence (P35368 whole entry): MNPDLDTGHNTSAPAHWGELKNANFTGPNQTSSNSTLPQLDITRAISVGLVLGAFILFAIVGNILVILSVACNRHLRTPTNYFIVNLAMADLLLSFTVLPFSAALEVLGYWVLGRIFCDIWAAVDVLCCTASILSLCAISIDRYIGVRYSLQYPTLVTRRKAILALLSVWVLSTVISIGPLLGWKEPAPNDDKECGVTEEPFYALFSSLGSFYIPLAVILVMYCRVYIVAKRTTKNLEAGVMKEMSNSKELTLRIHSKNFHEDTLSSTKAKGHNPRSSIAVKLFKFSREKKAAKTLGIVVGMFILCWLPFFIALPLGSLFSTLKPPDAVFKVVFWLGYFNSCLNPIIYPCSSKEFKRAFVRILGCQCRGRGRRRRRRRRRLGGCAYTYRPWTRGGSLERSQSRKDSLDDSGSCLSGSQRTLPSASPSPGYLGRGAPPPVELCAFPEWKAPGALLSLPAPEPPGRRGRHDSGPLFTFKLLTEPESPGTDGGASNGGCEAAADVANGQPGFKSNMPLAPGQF
Protocol: (§1) The possibility of KDS12025 on kinase off-target, the KINOMEscan panel of scanEDGE assay was conducted in DiscoverX (CA, USA) using a site-directed competition binding with the test compounds. The assay results are given in Supplementary Table 4 and experimental information is available on the DiscoverX web page (www.discoverx.com). Moreover, the Delta SafetyScreen87 panel assay was conducted in Eurofins Discovery (Cerep, France). The assay results are given in Supplementary Table 5 and experimental information is available on the DiscoverX web page (https://www.eurofinsdiscoveryservices.com).

[2] = system: Cl- channel (GABA-gated) (TBOB site) (antagonist radioligand); experiment: SafetyScreen87 panel; conditions: 1.0E-06 M, read-out: % Inhibition of Control Specific Binding (1st, 2nd, Mean)
Protocol: as §1

[3] = system: NMDA (antagonist radioligand); experiment: SafetyScreen87 panel; conditions: 1.0E-06 M, read-out: % Inhibition of Control Specific Binding (1st, 2nd, Mean)
Protocol: as §1

[4] = molecular target: T2, AR(h) (agonist radioligand) (Homo sapiens, UniProt P10275, T878A); experiment: SafetyScreen87 panel; conditions: 1.0E-06 M; mean; read-out: % Inhibition of Control Specific Binding (1st, 2nd, Mean)
T2 construct: purchased DiscoverX KINOMEscan scanEDGE; Eurofins Cerep SafetyScreen87
T2 sequence (P10275 whole entry T878A): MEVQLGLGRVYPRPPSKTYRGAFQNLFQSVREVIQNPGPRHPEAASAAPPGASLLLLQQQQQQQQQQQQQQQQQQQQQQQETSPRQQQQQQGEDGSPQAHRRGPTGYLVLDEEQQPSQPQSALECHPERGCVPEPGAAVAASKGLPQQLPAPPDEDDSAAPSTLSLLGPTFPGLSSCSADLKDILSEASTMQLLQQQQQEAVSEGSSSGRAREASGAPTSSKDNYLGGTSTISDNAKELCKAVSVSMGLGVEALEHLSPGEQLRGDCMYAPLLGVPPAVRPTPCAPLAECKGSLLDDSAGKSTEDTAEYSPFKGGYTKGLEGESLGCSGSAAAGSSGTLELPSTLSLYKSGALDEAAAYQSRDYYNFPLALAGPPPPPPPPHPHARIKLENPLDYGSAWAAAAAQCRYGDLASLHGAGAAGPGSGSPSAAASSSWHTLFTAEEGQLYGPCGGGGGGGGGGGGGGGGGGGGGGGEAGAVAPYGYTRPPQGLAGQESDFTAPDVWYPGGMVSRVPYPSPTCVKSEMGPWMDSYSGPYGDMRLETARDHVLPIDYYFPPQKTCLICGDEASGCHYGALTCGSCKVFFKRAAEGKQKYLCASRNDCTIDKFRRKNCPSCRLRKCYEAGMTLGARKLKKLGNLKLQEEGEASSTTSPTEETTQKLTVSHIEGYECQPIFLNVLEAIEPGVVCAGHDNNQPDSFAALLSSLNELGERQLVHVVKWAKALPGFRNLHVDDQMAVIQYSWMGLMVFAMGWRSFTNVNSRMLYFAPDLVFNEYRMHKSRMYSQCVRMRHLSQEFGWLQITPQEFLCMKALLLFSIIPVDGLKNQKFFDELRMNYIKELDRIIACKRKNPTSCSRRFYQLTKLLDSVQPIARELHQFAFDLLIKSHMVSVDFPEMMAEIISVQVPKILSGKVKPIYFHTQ
Protocol: as §1

[5] = system: kainate (agonist radioligand); experiment: SafetyScreen87 panel; conditions: 1.0E-06 M, read-out: % Inhibition of Control Specific Binding (1st, 2nd, Mean)
Protocol: as §1

hERG potassium channel = molecular target: T3, hERG potassium channel (Homo sapiens, UniProt Q12809); experiment: SafetyScreen87 panel; conditions: human, probe [3H] Dofetilide, 1.0E-06 M; read-out: % Inhibition of Control Specific Binding (1st, 2nd, Mean)
T3 construct: Eurofins Discovery (Cerep, France) SafetyScreen87 panel
T3 sequence (Q12809 whole entry): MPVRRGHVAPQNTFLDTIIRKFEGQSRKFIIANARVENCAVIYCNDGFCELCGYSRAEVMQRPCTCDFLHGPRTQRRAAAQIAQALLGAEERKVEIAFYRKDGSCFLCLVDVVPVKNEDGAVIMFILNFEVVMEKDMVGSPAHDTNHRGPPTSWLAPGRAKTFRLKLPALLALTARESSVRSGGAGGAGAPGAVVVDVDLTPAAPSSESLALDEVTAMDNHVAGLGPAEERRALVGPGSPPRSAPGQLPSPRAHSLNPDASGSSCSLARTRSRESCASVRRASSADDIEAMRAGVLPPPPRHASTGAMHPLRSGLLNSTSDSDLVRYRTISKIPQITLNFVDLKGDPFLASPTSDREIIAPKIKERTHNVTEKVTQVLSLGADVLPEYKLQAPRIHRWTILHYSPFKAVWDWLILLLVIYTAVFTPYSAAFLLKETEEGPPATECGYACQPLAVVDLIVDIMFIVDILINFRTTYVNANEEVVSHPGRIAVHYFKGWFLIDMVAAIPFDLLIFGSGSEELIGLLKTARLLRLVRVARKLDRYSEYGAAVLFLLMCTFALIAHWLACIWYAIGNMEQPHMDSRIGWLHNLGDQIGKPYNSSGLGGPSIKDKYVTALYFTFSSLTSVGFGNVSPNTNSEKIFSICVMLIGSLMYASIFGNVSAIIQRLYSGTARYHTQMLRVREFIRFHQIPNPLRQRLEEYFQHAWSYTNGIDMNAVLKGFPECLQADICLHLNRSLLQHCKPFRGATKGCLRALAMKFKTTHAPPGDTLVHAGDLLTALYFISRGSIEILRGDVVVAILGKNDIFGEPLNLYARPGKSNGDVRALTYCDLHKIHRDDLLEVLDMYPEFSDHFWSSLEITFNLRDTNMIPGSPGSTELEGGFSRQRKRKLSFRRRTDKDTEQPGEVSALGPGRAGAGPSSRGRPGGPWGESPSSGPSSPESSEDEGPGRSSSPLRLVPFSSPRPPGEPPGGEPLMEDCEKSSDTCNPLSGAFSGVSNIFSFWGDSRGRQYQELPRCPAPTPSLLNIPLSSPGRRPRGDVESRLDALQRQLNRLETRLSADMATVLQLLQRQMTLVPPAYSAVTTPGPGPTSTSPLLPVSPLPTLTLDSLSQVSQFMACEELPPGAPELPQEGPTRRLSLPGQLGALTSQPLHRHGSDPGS
Protocol: as §1

[6] = system: Ca2+ channel (L, diltiazem site) (benzothiazepines) (antagonist radioligand); experiment: SafetyScreen87 panel; conditions: 1.0E-06 M, read-out: % Inhibition of Control Specific Binding (1st, 2nd, Mean)
Protocol: as §1

[7] = molecular target: T4, 5-HT1A (h) (agonist radioligand) (Homo sapiens, UniProt P08908); experiment: SafetyScreen87 panel; conditions: 1.0E-06 M; mean; read-out: % Inhibition of Control Specific Binding (1st, 2nd, Mean)
T4 construct: purchased DiscoverX KINOMEscan scanEDGE; Eurofins Cerep SafetyScreen87
T4 sequence (P08908 whole entry): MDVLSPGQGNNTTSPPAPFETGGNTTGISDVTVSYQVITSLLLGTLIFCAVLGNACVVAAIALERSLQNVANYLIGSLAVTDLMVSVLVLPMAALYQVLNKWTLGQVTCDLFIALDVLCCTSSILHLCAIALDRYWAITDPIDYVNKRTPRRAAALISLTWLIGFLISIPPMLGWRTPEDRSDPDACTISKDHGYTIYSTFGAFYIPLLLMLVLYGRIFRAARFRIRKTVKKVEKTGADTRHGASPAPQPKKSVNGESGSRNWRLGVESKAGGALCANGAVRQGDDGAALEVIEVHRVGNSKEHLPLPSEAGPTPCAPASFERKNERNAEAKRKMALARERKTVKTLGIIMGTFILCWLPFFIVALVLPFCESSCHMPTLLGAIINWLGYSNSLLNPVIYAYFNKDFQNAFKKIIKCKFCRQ
Protocol: as §1

[8] = molecular target: T5, MAO-A (antagonist radioligand) (Rattus norvegicus, UniProt P21396); experiment: SafetyScreen87 panel; conditions: 1.0E-06 M; mean; read-out: % Inhibition of Control Specific Binding (1st, 2nd, Mean)
T5 construct: purchased DiscoverX KINOMEscan scanEDGE; Eurofins Cerep SafetyScreen87
T5 sequence (P21396 whole entry): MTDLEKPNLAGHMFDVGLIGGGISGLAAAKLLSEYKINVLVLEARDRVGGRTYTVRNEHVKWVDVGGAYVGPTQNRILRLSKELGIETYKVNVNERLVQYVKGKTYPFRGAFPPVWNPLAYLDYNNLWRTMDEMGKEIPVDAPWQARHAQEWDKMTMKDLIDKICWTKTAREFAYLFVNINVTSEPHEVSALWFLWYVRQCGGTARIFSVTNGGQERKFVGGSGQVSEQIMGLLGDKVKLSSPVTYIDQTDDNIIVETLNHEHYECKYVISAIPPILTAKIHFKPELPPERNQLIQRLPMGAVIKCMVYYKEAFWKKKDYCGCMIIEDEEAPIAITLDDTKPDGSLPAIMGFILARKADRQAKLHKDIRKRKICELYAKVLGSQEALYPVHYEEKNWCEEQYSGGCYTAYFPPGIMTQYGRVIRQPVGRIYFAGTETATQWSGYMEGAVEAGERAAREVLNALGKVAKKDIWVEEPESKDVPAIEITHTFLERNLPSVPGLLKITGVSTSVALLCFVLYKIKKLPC
Protocol: as §1

[9] = molecular target: T6, M3 (h) (antagonist radioligand) (Homo sapiens, UniProt P20309); experiment: SafetyScreen87 panel; conditions: 1.0E-06 M; mean; read-out: % Inhibition of Control Specific Binding (1st, 2nd, Mean)
T6 construct: purchased DiscoverX KINOMEscan scanEDGE; Eurofins Cerep SafetyScreen87
T6 sequence (P20309 whole entry): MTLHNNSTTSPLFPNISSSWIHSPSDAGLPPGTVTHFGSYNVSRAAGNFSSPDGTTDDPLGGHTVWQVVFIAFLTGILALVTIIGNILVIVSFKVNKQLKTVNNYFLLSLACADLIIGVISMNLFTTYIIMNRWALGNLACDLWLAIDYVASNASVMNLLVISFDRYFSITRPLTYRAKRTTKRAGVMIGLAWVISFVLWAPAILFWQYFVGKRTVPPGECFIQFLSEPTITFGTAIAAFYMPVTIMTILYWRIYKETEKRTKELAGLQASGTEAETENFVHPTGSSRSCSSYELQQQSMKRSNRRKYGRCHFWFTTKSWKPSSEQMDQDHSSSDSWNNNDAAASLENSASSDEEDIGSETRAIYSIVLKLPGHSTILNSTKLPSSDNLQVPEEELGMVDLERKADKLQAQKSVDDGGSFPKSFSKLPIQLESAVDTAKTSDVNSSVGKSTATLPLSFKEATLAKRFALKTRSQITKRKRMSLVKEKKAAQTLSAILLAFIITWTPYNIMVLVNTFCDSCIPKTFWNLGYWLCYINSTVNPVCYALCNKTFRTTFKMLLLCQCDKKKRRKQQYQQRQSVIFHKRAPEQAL
Protocol: as §1

[10] = molecular target: T7, Y1 (h) (agonist radioligand) (Homo sapiens, UniProt P25929); experiment: SafetyScreen87 panel; conditions: read-out: % Inhibition of Control Specific Binding (1st, 2nd, Mean); 1.0E-06 M
T7 construct: purchased DiscoverX KINOMEscan scanEDGE; Eurofins Cerep SafetyScreen87
T7 sequence (P25929 whole entry): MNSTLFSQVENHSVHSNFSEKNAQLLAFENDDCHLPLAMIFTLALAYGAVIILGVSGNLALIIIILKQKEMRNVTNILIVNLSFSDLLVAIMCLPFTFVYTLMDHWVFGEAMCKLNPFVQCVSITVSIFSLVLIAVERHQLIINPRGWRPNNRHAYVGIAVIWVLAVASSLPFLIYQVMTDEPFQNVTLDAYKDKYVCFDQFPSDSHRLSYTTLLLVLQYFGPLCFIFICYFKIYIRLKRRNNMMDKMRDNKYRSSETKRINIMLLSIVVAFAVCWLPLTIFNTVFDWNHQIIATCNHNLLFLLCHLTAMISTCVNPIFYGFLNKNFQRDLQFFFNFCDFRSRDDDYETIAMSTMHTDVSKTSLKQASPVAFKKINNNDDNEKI
Protocol: as §1

aged C57BL/6J mice = experiment: Immunohistochemistry, aging mice; type: in vivo, mouse; conditions: 30 month, 1 mg/kg/day
Protocol: Aged 1-year-old C57BL/6J animals were purchased from Janvier Labs (France) and quarantined in the IBS Animal Facility for 2 weeks before the experiment. The animals were weighed, and their water consumption (in grams) was monitored for 3 days before the appropriate drug concentration was calculated for each dose group. The animals were randomly assigned to the drug/control and dose groups. […] The drug concentration (in water) was modified on the basis of changes in animal weight and corresponding water consumption every 3 months. Basal body temperature and body weight were monitored every 2 weeks. The care and handling of the animals were performed in accordance with the guidelines of the Institutional Animal Care and Use Committee of IBS (Daejeon, South Korea).
The mice were deeply anesthetized with 2% isoflurane and positioned on the operating table. After the abdomen was opened and the heart was exposed, the […] were perfused with saline, followed by 4% paraformaldehyde (PFA) in 0.1 M PBS. The mice were decapitated, and the brains were excised from the skull. Excised brains were postfixed in 4% PFA overnight at 4 °C and dehydrated in 30% sucrose for 48 h. Coronal hippocampal sections were cut at 30 µm thickness with a cryostat and stored in storage solution. For the ALS experiments, lumbar spinal cords (L2–L5) were also carefully dissected and immediately immersed in 4% PFA for postfixation. The sections were fully washed in 0.1 M PBS and incubated for 1 h in blocking solution (0.3% Triton X-100, 2% donkey and goat serum in 0.1 M PBS). Next, a mixture of primary antibodies in the blocking solution was used for immunostaining on a shaker overnight at 4 °C. The sections were washed in PBS three times. After washing, the sections were incubated with the corresponding fluorescent secondary antibodies for 1 h at RT. DAPI staining was performed by adding a DAPI solution (1:2000) during the second washing step. After the washing step was complete, the sections were mounted on cover slides with mounting medium. A series of fluorescence images were obtained with an LSM900 (Zeiss, Germany) confocal microscope or Lattice SIM Elyra 7 (Zeiss, Germany). The 15–22 μm Z stack images in 1–2 μm steps were processed for image analysis, which was performed via the ImageJ (NIH, US) and ZEN digital imaging for light microscopy blue system (Zeiss, Germany) programs. The primary antibodies used were as follows: chicken anti-GFAP (1:500, Millipore, ab5541), rabbit anti-amyloid beta (1:500, Abcam, ab2539), mouse anti-NeuN (1:200, Millipore, ab377), rabbit anti-Hbβ (1:200, Abcam, ab214049), mouse anti-Hbβ (1:200, Santacruz, sc-21757), mouse anti-MAOB (1:200, Santacruz, sc-515354), mouse anti-8-OhdG (1:500, Santacruz, sc-393871), rabbit anti-TH (1:500, Pelfreez, p40101), and mouse anti-TH (1:200, Sigma, T2928). The following secondary antibodies from Jackson were diluted (1:500) in blocking solution: donkey-anti-chicken 405, donkey-anti-chicken 647, donkey-anti-rabbit 488, donkey-anti-rabbit 594, donkey-anti-rabbit 647, donkey-anti-guinea pig 488, donkey-anti-guinea pig 647, donkey-anti-mouse 594, and donkey-anti-mouse 647. Serial confocal sections immunolabeled with GFAP were compiled into a maximal projection to assess the GFAP signal within the hippocampus (Z-stacked images, 15–22 μm Z stack images in 1–2 μm steps of brain sections). Sholl analysis, performed via the ImageJ plugin, automatically generated concentric circles with 10-μm spacing from the nucleus (soma) to the farthest astrocytic process. This analysis quantified the intersections of GFAP-labeled processes within each circle, calculating the ramification index and ending radius, enabling the evaluation of astrocytic hypertrophy and morphological changes, as previously described.[78] In the focal GiD mouse model, NeuN-positive CA1 pyramidal neurons were quantified within a 50 × 50 μm^2 region via ImageJ to determine the number of CA1 pyramidal neurons.

For `CNc1ccc(NCCc2ccccc2OC)cc1.Cl` [KDS12025, N^1-(2-methoxyphenethyl)-N^4-methylbenzene-1,4-diamine hydrochloride salt], the activity ([1]; mean) was 65.4%, the activity [1] was 61.4% and 69.4% and the activity ([2]; mean) was 96.4%. The activity [2] was 104% and 89%, the activity ([3]; mean) was 98.7% and the activity [3] was 97.8% and 99.6%. For the same molecule, the activity [4] was 90.9%, the activity ([5]; mean) was 97.4% and the activity [5] was 76.8% and 118%. For the same molecule, the activity at 1 µM (hERG potassium channel) was 70.3%, the activity ([6]; mean) was 84.9% and the activity [6] was 88.1% and 81.7%. The activity [7] was 62.4%, the activity [8] was 100% and the activity [9] was 85.5%. The activity [10] was 104%, the “Sholl analysis, sum of intersections (stats entry 7h)” value (aged C57BL/6J mice) was 18 month (84.3±5.19, n=8), 30 month (44.4±5.44, n=9), 30 month+KDS (63.6±5.78, n=14) One-way ANOVA with Tukey's multiple comparisons test, F(2,28) = 9.65, p < 0.001 18 month vs. 30 month, p < 0.001; 18 month vs. 30 month+KDS, p = 0.05; 30 month vs. 30 month+KDS, p = 0.06 and the “NeuN-positive neurons in CA1 (NeuN intensity × neuron number)” value (aged C57BL/6J mice; Fig. 7f) was 18 month (1694642±125526, n=6), 30 month (1149296±45876, n=4), 30 month+KDS (1820376±163596, n=6) One-way ANOVA with Tukey's multiple comparisons test, F(2,13) = 5.78, p = 0.02 18 month vs. 30 month, p = 0.05; 18 month vs. 30 month+KDS, p = 0.77; 30 month vs. 30 month+KDS, p = 0.02. For the same molecule, the GFAP-positive area (aged C57BL/6J mice; Fig. 7g) was 18 month (272.5±20.8, n=44), 30 month (167.6±12, n=60), 30 month+KDS (212.0±12.4, n=76) One-way ANOVA with Tukey's multiple comparisons test, F(2,177) = 11.24, p < 0.001 18 month vs. 30 month, p < 0.001; 18 month vs. 30 month+KDS, p = 0.01; 30 month vs. 30 month+KDS, p = 0.06, the “astrocytic Hbβ expression in the hippocampus” value (aged C57BL/6J mice; Fig. 7l) was 18 month (56.4±1.04, n=48), 30 month (49.5±1.7, n=40), 30 month+KDS (62.8±1.32, n=32) One-way ANOVA with Tukey's multiple comparisons test, F(2,117) = 21.5, p < 0.001 18 month vs. 30 month, p < 0.001; 18 month vs. 30 month+KDS, p = 0.004; 30 month vs. 30 month+KDS, p < 0.001 and the “MAOB intensity in GFAP-positive areas” value (aged C57BL/6J mice; Fig. S19b) was 18 month (40.7±0.7, n=95), 30 month (71.5±1.04, n=66), 30 month+KDS (51.1±0.8, n=83) One-way ANOVA with Tukey's multiple comparisons test, F(2,241) = 354.7, p < 0.001 18 month vs. 30 month, p < 0.001; 18 month vs. 30 month+KDS, p < 0.001; 30 month vs. 30 month+KDS, p < 0.001. For the same molecule, the “GABA intensity in GFAP-positive areas” value (aged C57BL/6J mice; Fig. S19c) was 18 month (50.7±0.7, n=95), 30 month (67.03±1.7, n=66), 30 month+KDS (69.2±1.3, n=83) One-way ANOVA with Tukey's multiple comparisons test, F(2,198) = 84.9, p < 0.001 18 month vs. 30 month, p < 0.001; 18 month vs. 30 month+KDS, p < 0.001; 30 month vs. 30 month+KDS, p = 0.47 and the “TH-positive neurons in the SNpc” value (aged C57BL/6J mice; Fig. S19d) was “Unaired t-test, two tailed 30 month (23.75±5.12, n=4), 30 month+KDS (40.2±2.67, n=5), p = 0.02 t = 3.03, df = 7”.
